Consider six sequences from PMC11641755, “Features of Highly Homologous T-Cell Receptor Repertoire in the Immune Response to Mutations in Immunogenic Epitopes” (International Journal of Molecular Sciences, 2024).

Assay [1] deals with TCR NYN-2 (Jurkat E6-1 TPR cells). Format: cell-based, human.
For assay [2], the system named is TCR NYN-3 (Jurkat E6-1 TPR cells). Type of assay: cell-based, human.
Assay [3] has as its system NYN peptide-specific TCRs (NYN-1 to NYN-4 Jurkat E6-1 TPR cell lines). Type of assay: cell-based, human.
Assay [4] concerns TCR NYN-1 (Jurkat E6-1 TPR cells). Format: cell-based, human.
The subject of assay [5] is TCR NYN-4 (Jurkat E6-1 TPR cells). The assay can be described thus: Jurkat E6-1 TPR NFAT-eGFP reporter activation, transgenic TCR NYN-4, peptide-loaded K562-A*24:02. Format: cell-based, human.
Assay [6] has as its system TCR^NYN-I. The settings on record: ref 20 (Deng et al.); cited from earlier work.
The subject of assay [7] is TCR^NYN-II. The settings on record: ref 20 (Deng et al.); cited from earlier work.

NYDYLYRLF [N450D]: the “effect of the mutation on response / affinity of NYN-2 (in words)” value in assay [1] is listed as “increased the affinity”. For the same sequence, the “effect of the mutation on response / affinity of NYN-3 (in words)” value in assay [2] is listed as “increased the affinity”. Besides, the “effect of the mutation on the T-cell response / recognition (in words)” value in assay [3] is reported as “did not affect the T-cell response”.

Turning to NYKYLYRLF [N450K], the “effect of the mutation on response / affinity of NYN-1 (in words)” value in assay [4] was “remained preserved”. Moreover, the “reduction in the recognition compared to wild-type NYN” value in assay [5] (TCR NYN-4, from EC50 values) is “up to 400 fold”. Further, in assay [6], the “recognition / response of TCR^NYN-I (in words)” value was “remained preserved”. The “recognition / response of TCR^NYN-II (in words)” value in assay [7] is listed as “remained preserved”.

Regarding NYNYLYRFF [L455F], the “reduction in the recognition compared to wild-type NYN” value in assay [1] (TCR NYN-2, from EC50 values) was 23 fold. Besides, the “effect of the mutation on the T-cell response / recognition (in words)” value in assay [3] is given as “did not affect the T-cell response”.

Consider NYNYLYRLL [F456L], for which the “effect of the mutation on the T-cell response / recognition (in words)” value in assay [3] was “did not affect the T-cell response”.

As for NYNYMYRLF [L452M], the “effect of the mutation on the T-cell response / recognition (in words)” value in assay [3] is given as “did not affect the T-cell response”.

Regarding VYFLQSINF, the “GFP expression compared to NYN” value in assay [4] (NYN-1 cell line, K562 loaded with 0.8 μM peptide) is recorded as “the same level of GFP expression as NYN”; in assay [1] (NYN-2 cell line, K562 loaded with 0.8 μM peptide), “the same level of GFP expression as NYN”; in assay [2] (NYN-3 cell line, K562 loaded with 0.8 μM peptide), 1.5 times lower; in assay [5] (NYN-4 cell line, K562 loaded with 0.8 μM peptide), 1.5 times lower. Besides, the “recognition by all NYN-specific TCRs (cross-reactivity)” value in assay [3] (K562 loaded with 0.8 μM of each epitope) is “recognized”.
